Measurements taken from the NIST ThermoML archive (doi:10.1016/j.jct.2005.09.003).

Experiment: xn = mol fraction of the nth substance listed
Conditions: Liquid

CCCCCCCl [1-chlorohexane] + CCCCCCCC
mass density [kg/m3]
Conditions | x2 = 0 | x2 = 0.1016 | x2 = 0.1996 | x2 = 0.3153 | x2 = 0.3948 | x2 = 0.4862 | x2 = 0.5938 | x2 = 0.6966 | x2 = 0.794 | x2 = 0.9001
298.15 K, 39620 kPa | – | – | – | – | – | – | – | – | – | 741.83
308.15 K, 100 kPa | 863.99 | 843.29 | 824.06 | 802.22 | 787.75 | 771.63 | 753.33 | 736.52 | 721.15 | 705.03
308.15 K, 2130 kPa | 865.56 | 845 | 825.77 | 803.94 | 789.46 | 773.39 | 755.1 | 738.36 | 722.94 | 706.75
308.15 K, 4150 kPa | 867.35 | 846.81 | 827.59 | 805.76 | 791.31 | 775.22 | 756.95 | 740.19 | 724.76 | 708.57
308.15 K, 6180 kPa | 869.15 | 848.61 | 829.39 | 807.57 | 793.1 | 777.03 | 758.74 | 742 | 726.58 | 710.37
308.15 K, 8210 kPa | 870.9 | 850.37 | 831.16 | 809.34 | 794.85 | 778.81 | 760.51 | 743.77 | 728.34 | 712.11
308.15 K, 10230 kPa | 872.61 | 852.08 | 832.88 | 811.05 | 796.6 | 780.52 | 762.22 | 745.47 | 730.04 | 713.8
308.15 K, 11250 kPa | 873.47 | 852.95 | 833.74 | 811.91 | 797.46 | 781.38 | 763.1 | 746.33 | 730.91 | 714.66
308.15 K, 12260 kPa | 874.3 | 853.78 | 834.58 | 812.74 | 798.31 | 782.22 | 763.93 | 747.17 | 731.72 | 715.48
308.15 K, 14290 kPa | 875.96 | 855.47 | 836.25 | 814.43 | 799.98 | 783.88 | 765.62 | 748.84 | 733.37 | 717.14
308.15 K, 16310 kPa | 877.59 | 857.09 | 837.88 | 816.06 | 801.61 | 785.51 | 767.22 | 750.45 | 735 | 718.74
308.15 K, 18340 kPa | 879.2 | 858.68 | 839.49 | 817.66 | 803.22 | 787.12 | 768.81 | 752.06 | 736.58 | 720.34
308.15 K, 20370 kPa | 880.78 | 860.28 | 841.08 | 819.25 | 804.79 | 788.69 | 770.37 | 753.6 | 738.13 | 721.86
308.15 K, 22390 kPa | 882.35 | 861.81 | 842.63 | 820.79 | 806.33 | 790.24 | 771.9 | 755.13 | 739.65 | 723.39
308.15 K, 24420 kPa | 883.86 | 863.33 | 844.15 | 822.3 | 807.85 | 791.75 | 773.44 | 756.65 | 741.13 | 724.85
308.15 K, 26450 kPa | 885.35 | 864.85 | 845.66 | 823.79 | 809.33 | 793.23 | 774.9 | 758.1 | 742.61 | 726.31
308.15 K, 28470 kPa | 886.84 | 866.32 | 847.13 | 825.28 | 810.81 | 794.7 | 776.37 | 759.57 | 744.06 | 727.75
308.15 K, 29490 kPa | 887.56 | 867.04 | 847.84 | 825.98 | 811.52 | 795.4 | 777.07 | 760.27 | 744.75 | 728.43
308.15 K, 30500 kPa | 888.21 | 867.77 | 848.57 | 826.72 | 812.26 | 796.13 | 777.79 | 760.96 | 745.47 | 729.14
308.15 K, 32530 kPa | 889.73 | 869.2 | 850.02 | 828.15 | 813.68 | 797.54 | 779.17 | 762.38 | 746.85 | 730.54
308.15 K, 34550 kPa | 891.14 | 870.61 | 851.41 | 829.56 | 815.08 | 798.95 | 780.59 | 763.77 | 748.23 | 731.86
308.15 K, 36580 kPa | 892.52 | 872.01 | 852.79 | 830.94 | 816.46 | 800.32 | 781.95 | 765.13 | 749.58 | 733.19
308.15 K, 38600 kPa | 893.9 | 873.39 | 854.16 | 832.28 | 817.83 | 801.66 | 783.3 | 766.43 | 750.88 | 734.53
308.15 K, 39620 kPa | 894.55 | 874.04 | 854.82 | 832.94 | 818.49 | 802.33 | 783.95 | 767.08 | 751.54 | –
